Values joined by “and” are separate entries in the source; they are usually repeats but may differ in a detail not shown here. Equal values may be shown once. After the bases stand the sugars from the 5' end (letter, count) and the backbone: PS all phosphorothioate, else s phosphorothioate and o phosphodiester by linkage. Methylation of C is not given here. k = constrained ethyl (cEt); d = 2'-deoxy (DNA)

The target of the data set is MALAT1. The conditions noted are these: ASO, A431, 0.005 µM.
For ATATAAGGTCAATAGT (sugars k3 d10 k3, PS), the target mRNA inhibition was found to be 16%.
Regarding CATACAAACTGCTTAC (sugars k3 d10 k3, PS), the target mRNA inhibition stood at 29%.
For TGCTTATTCCCCAATG (sugars k3 d10 k3, PS) the value was 52%; for GGCGGACTTTCTCCCC (sugars k3 d10 k3, PS), -17%; for TGATTTTAAGGTTGCA (sugars k3 d10 k3, PS), 70% and 67%.
Consider AGTCACTGGATAAGTA (sugars k3 d10 k3, PS), for which the target mRNA inhibition worked out at 41%.
For TGCAGTCCTGCGACTT (sugars k3 d10 k3, PS) the value was 15%; for CAAAATGGCGGACTTT (sugars k3 d10 k3, PS), 17%.
For the sequence CAAGCATTCCTTCGGA (sugars k3 d10 k3, PS), the target mRNA inhibition came out at 25%.
The result for AGCCTTGCAGGGACGG (sugars k3 d10 k3, PS) reads -21%.
With GCACGGAAATTTTTCT (sugars k3 d10 k3, PS), the target mRNA inhibition was -3%.
On to CATTGGCACACAGCAC (sugars k3 d10 k3, PS), for which the target mRNA inhibition turned out to be 21%.
The result for CGCCATGGAAAGCGAG (sugars k3 d10 k3, PS) reads 20%; that for CATAAGTAAGTTCCAG (sugars k3 d10 k3, PS), 49%; that for ACCTTCTGAACCGGAG (sugars k3 d10 k3, PS), 22%.
The result for ATCCACTTCTGTGTAG (sugars k3 d10 k3, PS) reads 38%.
As for CAAACTGCTTACAGAT (sugars k3 d10 k3, PS), the target mRNA inhibition worked out at 31%.
The result for CCCATTATATTAGAAA (sugars k3 d10 k3, PS) reads 10%; that for ATCCCAACCGTAACAG (sugars k3 d10 k3, PS), 13%; that for ATATTTTAAACGGGTC (sugars k3 d10 k3, PS), 16%.
For AACCACACACTACCAT (sugars k3 d10 k3, PS) the value was -7%; for ACTGCATTTACTTGCC (sugars k3 d10 k3, PS), 8%.
The result for TTACCTAAACCCACCC (sugars k3 d10 k3, PS) reads 38%; that for CTGTAAACCTGTGGTG (sugars k3 d10 k3, PS), 15%; that for GCCTCAATGCCTACCG (sugars k3 d10 k3, PS), -11%.
As to TCATTACCCCAACTAA (sugars k3 d10 k3, PS), the target mRNA inhibition turned out to be 17%.
The result for AATCCCTTTACACCTC (sugars k3 d10 k3, PS) reads 26%; that for AACTGTAAACCTGTGG (sugars k3 d10 k3, PS), -8%; that for TGCGGCCCCCCAGTTG (sugars k3 d10 k3, PS), -6%.
For TAAGCCTTCGGTGCCT (sugars k3 d10 k3, PS) the value was 4%.
For GCTCTGTAGTCCTTTC (sugars k3 d10 k3, PS) the value was 42%; for CCTGCTACCTTCATCA (sugars k3 d10 k3, PS), 22%.
As for CACAAGGATCCAAGCT (sugars k3 d10 k3, PS), the target mRNA inhibition worked out at 18%.
For ACTCGCTCCTTCCTGG (sugars k3 d10 k3, PS), the target mRNA inhibition stood at 48%.
Take CCCGCACGGAAATTTT (sugars k3 d10 k3, PS): the target mRNA inhibition stood at 17%.
For CCAAGATTGCCCCAAC (sugars k3 d10 k3, PS) the value was 14%; for CAGTTACTCCAGCATA (sugars k3 d10 k3, PS), 24%.
For GACAGTAGGTATAGTT (sugars k3 d10 k3, PS) the value was -13%.
For AGGAACAAGTCCTACA (sugars k3 d10 k3, PS) the value was 36%.

(Values after the OligoGym collection.)
